Common to all, as to format: cell-based
Assay [1] has as its target T1, human GPR40 (Homo sapiens, UniProt O14842). As to the kind of experiment: GAL4/Elk-1 luciferase reporter assay in CHO clones transfected with human GPR40, with and without pertussis toxin. Further details: expressed in transfected cells; host or cells: wild-type CHO cells, transient co-transfection (CMV-GPR40 + 3x-CRE-Luc). Particulars: cells containing GPR40, Figure 4B. From the text: (§1) To further test the coupling of GPR40 to Gαi/Gαq a Gal4/Elk-1 reporter was used. A stable, clonal reporter line was created by transfecting CHO cells with a plasmid that contains an expression construct for GAL4/Elk-1 and a GAL4-luciferase reporter construct. A similar reporter system can now be purchased from Stratagene (under the trademark […]®). An expression construct for human GPR40 which contains a G418 resistance construct was transfected into the host CHO GAL4/Elk-1 reporter cell line (10ug plasmid DNA pCR3-GPR40) via electroporation. The cell lines were selected for with 500ug/mL G418 until all cells in the control were dead and clones were then picked. The Gal4/Elk-1 reporter can be activated through Gq or Gi. To confirm coupling via Gi, cells were treated with pertussis toxin treatment which ADP-ribosylates Gαi preventing its interaction with receptors (Bokoch et al., J. Biol. Chem 258:2072 (1983)). Pertussis toxin has no known effect on Gαq.
(§2) Host cells and those transfected with the GPR40 construct were plated in a 96-well tissue culture plate at 2000 cells/well in DMEM/F12 supplemented with 5% FBS. After 48 hours at 37°C at 5% CO2 the cells were placed in serum-free DMEM/F12 in the presence or absence of 1ug/ml pertussis toxin. […]
(In general: A reporter such as luciferase makes a cellular process visible.)

For assay [2], the target named is T1, human GPR40. The assay can be described thus: FLIPR intracellular calcium assay in HEK-293 cells transiently expressing GPR40 (with G-protein cocktail). Particulars: for pEC50 / EC50: Additional Fatty Acid Compounds. The source says:
The Fluorometric Imaging Plate Reader (FLIPR™, Molecular Devices, UK) measures intracellular fluorescense in multi-well microplates. Where a GPCR couples to a calcium signalling pathway, the FLIPR system can be used with cells expressing the G-protein coupled receptor and containing calcium-sensitive fluorescent dyes, to monitor the intracellular calcium flux that occurs after activation of the G-coupled receptor. See, e.g., Kirk et al., J. Biomolecular Screening, 1:75 (1996).
(§3) The assays utilized a G-protein cocktail (+GPC) that contained chimeric and promiscuous G-proteins, as is known in the art of screening orphan G-protein coupled receptors.
(In general: Calcium assays in cells follow changes in intracellular calcium, usually with a dye or a luminescent sensor.)

Assay [3] concerns the target T1, human GPR40. The assay can be described thus: 3X-CRE-luciferase reporter assay in CHO cells (Gs coupling). Further details: expressed in transfected cells; host or cells: wild-type CHO cells, transient co-transfection (CMV-GPR40 + 3x-CRE-Luc). Conditions: CRE-Luc; cells containing reporter only and cells containing GPR40; 4 hours of treatment; Figure 3c. The protocol:
Specific coupling was determined in mammalian cells using transient expression of a CRE-luciferase reporter for Gαs and stable cell-lines containing Gal4/ELK-1-luciferase reporter for Gαq/Gαi. Wild-type CHO cells were co-transfected with 3X-CRE-luciferase reporter vector and various amounts of an expression vector for GPR40. The control cells were transfected with reporter vector only. The reporter gene plasmids were produced in house but similar vectors can be purchased from Stratagene ([…]®). Cells were plated in a 24 well tissue culture plate at 1 x 10^4 cells/well in DMEM/F12 supplemented with 5% FBS. After 72 hours at 37°C, 5% CO2, the cells were transfected using the liposomal transfection reagent sold under the trademark LIPOFECTAMINE® and with the following combinations of plasmids: • A- 3x-CRE-Luc • B- 3x-CRE-Luc + CMV-GPR40 • C- 3x-CRE-Luc + CMV-Gs coupled receptor The concentration of reporter plasmid for all wells was 0.15µg/well. Concentrations of receptor plasmids were 0.5, 1.0, 5.0, 10.0 ng/well. After 24hrs Cells containing 1ng/well of receptor plasmid or no DNA control and CRE-Luc reporter were treated with fatty acid or the calcitonin which is known to act through a Gs-coupled receptor (Chakraborty, Science 251: 1078 (1991)) at concentrations indicated. […]

Assay [4] concerns CHO GAL4/Elk-1 reporter cell line. As to the kind of experiment: GAL4/Elk-1 luciferase reporter assay in host CHO cells (reporter only), with and without pertussis toxin.
Excerpt: as §1, §2

The subject of assay [5] is HLTEX11. The assay can be described thus: FLIPR intracellular calcium assay in HEK-293 cells transiently expressing control 7TM receptor HLTEX11. Particulars: HEK-293 cells transiently expressing HLTEX11; Figure 1.
Excerpt: as §3

For assay [6], the system named is PGRW. As to the kind of experiment: FLIPR intracellular calcium assay in HEK-293 cells transiently expressing control 7TM receptor PGRW. Particulars: HEK-293 cells transiently expressing PGRW; Figure 1.
Excerpt: as §3

What is called pEC50 is the EC50 on a negative log10 scale, so that one unit is a factor of ten. A word on the EC50: it is the concentration needed to bring the measured effect to its halfway point.

T1 sequence (O14842 whole entry, the tested form may be a part): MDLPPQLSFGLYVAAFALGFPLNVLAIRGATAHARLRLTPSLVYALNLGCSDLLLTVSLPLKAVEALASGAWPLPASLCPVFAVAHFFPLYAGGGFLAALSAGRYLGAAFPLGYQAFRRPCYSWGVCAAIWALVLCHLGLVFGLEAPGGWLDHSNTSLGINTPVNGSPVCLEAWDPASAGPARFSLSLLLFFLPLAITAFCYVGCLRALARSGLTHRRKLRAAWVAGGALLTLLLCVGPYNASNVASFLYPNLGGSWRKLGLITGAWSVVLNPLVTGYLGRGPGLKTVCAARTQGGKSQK

As to `CCCCCCCCC#CCC#CCC#CCCCC(=O)O` [5,8,11-Eicosatriynoic acid], the “effect of pertussis toxin treatment on the stimulated luciferase activity” value in assay [1] (1ug/ml pertussis toxin) is recorded as “not inhibited”. Further, the “luciferase activity compared to basal” value in assay [1] is “increased”. Further, the negative-log EC50 (pEC50) in assay [2] (FLIPR) was 5.77. Further, the luciferase production result in assay [3] and in assay [4] (Figure 4B) was “no effect” throughout.

With `CCCCC[C@H](O)[C@H](O)/C=C/C=C/C=C\C/C=C\CCCC(=O)O` [14®, 15(S)-DiHETE], in assay [2] (FLIPR), the concentration for a half-maximal effect (EC50) stood at 23.4 µM and the pEC50 was 4.63.

For the compound `C#CCCCCCCCCCCCCCCCC(=O)O` [17-Octadecynoic acid], the negative logarithm of the EC50 (pEC50) in assay [2] (FLIPR) came out at 5.12.

In the case of `CCCCC/C=C\C/C=C\C/C=C\C/C=C\CCCCCC(=O)O` [Adrenic acid], in assay [2] (FLIPR), the EC50 was 13.5 µM and the negative-log EC50 (pEC50) was found to be 4.87.

As for `CC1=C(/C=C/C(C)=C/C=C/C(C)=C/C=O)C(C)(C)CCC1` [All-trans-retinal], the “Mean pEC50 of 3 expts” value in assay [2] (mean over experiments (n=1 or n=2 where printed), FLIPR) was 4.16.

With `CCCCC/C=C\C/C=C\C/C=C\C/C=C\CCCC(=O)O` [Arachidonic acid], in assay [2] (FLIPR), the pEC50 is 5.04.

`CCCCC/C=C\C/C=C\C/C=C\CCCCCCC(=O)O` [Dihomo-gamma-linolenic acid]: in assay [2] (FLIPR), the pEC50 stood at 5.14.

On to `CC/C=C\C/C=C\C/C=C\C/C=C\C/C=C\CCCCCC(=O)O` [Docosa-7Z,10Z,13Z,16Z,19Z-pentaenoic acid], for which, in assay [2] (FLIPR), the negative-log EC50 (pEC50) turned out to be 5.33.

Take `CC/C=C\C/C=C\C/C=C\CCCCCCCCCCCC(=O)O` [Docosa-13Z,16Z,19Z-trienoic acid]: the pEC50 in assay [2] (FLIPR) is listed as 5.17.

As for `CC/C=C\C/C=C\C/C=C\C/C=C\C/C=C\CCCC(=O)O` [Eicosa-5Z,8Z,11Z,14Z,17Z-pentaenoic acid], in assay [2] (FLIPR), the pEC50 came to 5.17.

As to `CCCCCCCCCCC/C=C\C/C=C\CCCC(=O)O` [Eicosa-5Z,8Z-dienoic acid], the negative-log EC50 (pEC50) in assay [2] (FLIPR) amounted to 5.11.

For the compound `CC/C=C\C/C=C\C/C=C\CCCCCCCCCC(=O)O` [Eicosa-11Z,14Z,17Z-trienoic acid], the pEC50 in assay [2] (FLIPR) stood at 4.95.

For `CCCCC/C=C\C/C=C\CCCCCCCCCC(=O)O` [Eicosa-11Z,14Z-dienoic acid], the negative-log EC50 (pEC50) in assay [2] (FLIPR) is reported as 4.97.

As to `CCCCCCCC/C=C/CCCCCCCC(=O)O` [Elaidic acid], the pEC50 in assay [2] (FLIPR) stood at 4.87. Further, in assay [2] (HEK-293 cells transiently expressing GPR40, +GPC, Figure 1), the “FLIPR response (intracellular calcium levels)” value is listed as “response detected”. Further, the FLIPR response result in assay [5] and in assay [6] was “No response” throughout.

Consider `CCCCCCCC/C=C\CCCCCCCC(=O)OC[C@@H](O)COP(=O)(O)O` [LPA, lysophosphatidic acid (oleoyl)], for which, in assay [4] (1ug/ml pertussis toxin, Figures 4A, 4C), the “agonist-stimulated reporter activity following pertussis toxin treatment” value was “completely abolished”.

In the case of `CCCCC/C=C\C/C=C\CCCCCCCC(=O)O` [Linoleic acid], the negative-log EC50 (pEC50) in assay [2] (FLIPR) was 5.02.

With `CCCCCCCC/C=C\C/C=C\C/C=C\CCCC(=O)O` [Mean acid], in assay [2] (FLIPR), the half-maximal effective concentration (EC50) turned out to be 2.51 µM and the negative-log EC50 (pEC50) is recorded as 5.60.

As for `CCC=CCC=CCC=CCC=CCC=CC/C=C\CCC(=O)O` [cis-4,7,10,13,16,19-Docosahexaenoic acid], the pEC50 in assay [2] (FLIPR) was found to be 5.79.

Regarding calcitonin, the luciferase production result in assay [3] is listed as “increase”.

Source of the values: EP1354200B1, “METHOD OF SCREENING FOR GPR40 LIGANDS” (priority 2000, dated 2002).
